# Test results published in patent US9290478B2, “Substituted quinoxalines as FGFR kinase inhibitors” (ASTEX THERAPEUTICS LTD, priority 2010, dated 2016).
# What was measured:
# [1] = test system: Ba/F3-FGFR1-transfected cells; experiment: Ba/F3-FGFR1 (minus IL3 or plus IL3) cellular proliferation assay; format: cell-based; details: plus 10 ng/ml murine IL3 (counterscreen); for IC50: 24 h, read-out: BAF3-FGFR1 (PLUS IL3) pIC50 (converted)
# Method: (§1) Ba/F3-FGFR1 (Minus IL3 or Plus IL3) (Cellular Proliferation Assay)
# (§2) In a 384 well plate, 100 nl of compound dilution in DMSO was sprayed before adding 50 μl cell culture medium (phenol red free RPMI-1640, 10% FBS, 2 mM L-Glutamine and 50 μg/ml Gentamycin) containing 20000 cells per well of Ba/F3-FGFR1-transfected cells. Cells were put in an incubator at 37° C. and 5% CO2. After 24 hours, 10 μl of Alamar Blue solution (0.5 mM K3Fe(CN)6, 0.5 mM K4Fe(CN)6, 0.15 mM Resazurin and 100 mM Phosphate Buffer) was added to the wells, incubated for 4 hours at 37° C. and 5% CO2 before RFU's (Relative Fluorescence Units) (ex. 540 nm., em. 590 nm.) were measured in a fluororescence plate reader.
# (§3) In this assay, the inhibitory effect of different compound concentrations (range 10 μM to 0.1 nM) was determined and used to calculate an IC50 (M) and pIC50 (−log IC50) value.
# (§4) As a counterscreen the same experiment was performed in the presence of 10 ng/ml murine IL3.
# [2] = molecular target: T1, Ba/F3-FGFR1-transfected cells (Homo sapiens, UniProt P11362); experiment: as above; format: cell-based; details: minus IL3
# T1 construct: BAF3-FGFR1 (MIN IL3) pIC50; other: minus IL3
# T1 sequence (P11362 whole entry, change not shown): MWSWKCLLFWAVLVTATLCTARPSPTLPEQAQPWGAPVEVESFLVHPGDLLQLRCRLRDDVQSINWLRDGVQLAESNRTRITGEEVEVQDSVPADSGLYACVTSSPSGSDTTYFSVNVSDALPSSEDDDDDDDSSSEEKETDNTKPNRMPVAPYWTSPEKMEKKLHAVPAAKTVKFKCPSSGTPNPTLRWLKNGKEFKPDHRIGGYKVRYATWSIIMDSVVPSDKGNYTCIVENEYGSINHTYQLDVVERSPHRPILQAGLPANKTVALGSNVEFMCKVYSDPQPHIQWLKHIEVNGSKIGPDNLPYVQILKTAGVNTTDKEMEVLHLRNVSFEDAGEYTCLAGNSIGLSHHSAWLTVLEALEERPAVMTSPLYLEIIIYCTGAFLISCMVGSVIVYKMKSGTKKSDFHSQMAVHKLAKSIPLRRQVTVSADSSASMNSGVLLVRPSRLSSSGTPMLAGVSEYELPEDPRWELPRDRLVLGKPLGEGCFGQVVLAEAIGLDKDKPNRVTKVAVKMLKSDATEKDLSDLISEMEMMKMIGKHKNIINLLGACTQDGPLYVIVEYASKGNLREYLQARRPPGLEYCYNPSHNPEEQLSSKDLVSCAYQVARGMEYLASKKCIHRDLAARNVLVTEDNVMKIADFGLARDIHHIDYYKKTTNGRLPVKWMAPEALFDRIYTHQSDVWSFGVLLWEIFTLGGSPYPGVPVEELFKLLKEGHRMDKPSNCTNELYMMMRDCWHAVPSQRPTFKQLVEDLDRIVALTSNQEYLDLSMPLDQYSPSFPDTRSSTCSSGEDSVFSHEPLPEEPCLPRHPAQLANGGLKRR
# Method: as §1, §2, §3, §4
# FGFR1 (h) = FGFR1 (h) (Homo sapiens, UniProt P11362); experiment: FGFR1 (enzymatic assay), TR-FRET; format: biochemical; details: 5 μM ATP; read-out: FGFR1 pIC50 (converted)
# Chain of FGFR1 (h) (P11362 22-822): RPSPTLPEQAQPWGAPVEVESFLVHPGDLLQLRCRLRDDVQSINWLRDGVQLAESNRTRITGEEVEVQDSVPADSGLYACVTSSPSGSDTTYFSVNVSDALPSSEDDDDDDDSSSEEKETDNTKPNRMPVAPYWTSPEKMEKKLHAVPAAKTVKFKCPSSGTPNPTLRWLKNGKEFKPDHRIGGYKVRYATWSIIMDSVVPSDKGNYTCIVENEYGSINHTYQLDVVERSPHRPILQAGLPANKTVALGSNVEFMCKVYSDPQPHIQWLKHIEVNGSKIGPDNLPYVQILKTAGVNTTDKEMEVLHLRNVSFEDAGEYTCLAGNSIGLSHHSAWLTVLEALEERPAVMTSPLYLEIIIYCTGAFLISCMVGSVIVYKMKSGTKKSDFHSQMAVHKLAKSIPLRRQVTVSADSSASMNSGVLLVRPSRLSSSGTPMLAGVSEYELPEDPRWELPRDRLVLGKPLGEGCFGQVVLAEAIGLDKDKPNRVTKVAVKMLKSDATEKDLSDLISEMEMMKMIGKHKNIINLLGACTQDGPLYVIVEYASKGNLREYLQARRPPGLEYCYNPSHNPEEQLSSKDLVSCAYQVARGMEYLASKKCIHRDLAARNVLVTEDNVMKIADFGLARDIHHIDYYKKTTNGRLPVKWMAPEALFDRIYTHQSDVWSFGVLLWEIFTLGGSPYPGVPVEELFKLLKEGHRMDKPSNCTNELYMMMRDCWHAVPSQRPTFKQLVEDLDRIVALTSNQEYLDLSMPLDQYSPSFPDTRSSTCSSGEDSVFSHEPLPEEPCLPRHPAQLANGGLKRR
# Method: (§5) In a final reaction volume of 30 μL, FGFR1 (h) (25 ng/ml) was incubated with 50 mM HEPES pH 7.5, 6 mM MnCl2, 1 mM DTT, 0.1 mM Na3VO4, 0.01% Triton-X-100, 500 nM Btn-Flt3 and 5 μM ATP in the presence of compound (1% DMSO final). After incubation for 60 minutes at room temperature the reaction was stopped with 2.27 nM EU-anti P-Tyr, 7 mM EDTA, 31.25 nM SA-XL-665 and 0.02% BSA which was present for 60 minutes at room temperature. Time-Resolved Fluorescence Resonance Energy Transfer (TR-FRET) signal (ex340 nm. Em 620 nm, em 655 nm) was measured afterwards and results are expressed in RFU (Relative Fluorescence Units). In this assay, the inhibitory effect of different compound concentrations (range 10 μM to 0.1 nM) was determined and used to calculate an IC50 (M) and pIC50 (−log IC50) value.
# [3] = molecular target: T2, Ba/F3-KDR-transfected cells (Homo sapiens, UniProt P35968); experiment: Ba/F3-KDR (minus IL3 or plus IL3) cellular proliferation assay; format: cell-based; details: minus IL3
# T2 construct: BAF3-KDR (MIN IL3) pIC50; other: minus IL3
# T2 sequence (P35968 whole entry, change not shown): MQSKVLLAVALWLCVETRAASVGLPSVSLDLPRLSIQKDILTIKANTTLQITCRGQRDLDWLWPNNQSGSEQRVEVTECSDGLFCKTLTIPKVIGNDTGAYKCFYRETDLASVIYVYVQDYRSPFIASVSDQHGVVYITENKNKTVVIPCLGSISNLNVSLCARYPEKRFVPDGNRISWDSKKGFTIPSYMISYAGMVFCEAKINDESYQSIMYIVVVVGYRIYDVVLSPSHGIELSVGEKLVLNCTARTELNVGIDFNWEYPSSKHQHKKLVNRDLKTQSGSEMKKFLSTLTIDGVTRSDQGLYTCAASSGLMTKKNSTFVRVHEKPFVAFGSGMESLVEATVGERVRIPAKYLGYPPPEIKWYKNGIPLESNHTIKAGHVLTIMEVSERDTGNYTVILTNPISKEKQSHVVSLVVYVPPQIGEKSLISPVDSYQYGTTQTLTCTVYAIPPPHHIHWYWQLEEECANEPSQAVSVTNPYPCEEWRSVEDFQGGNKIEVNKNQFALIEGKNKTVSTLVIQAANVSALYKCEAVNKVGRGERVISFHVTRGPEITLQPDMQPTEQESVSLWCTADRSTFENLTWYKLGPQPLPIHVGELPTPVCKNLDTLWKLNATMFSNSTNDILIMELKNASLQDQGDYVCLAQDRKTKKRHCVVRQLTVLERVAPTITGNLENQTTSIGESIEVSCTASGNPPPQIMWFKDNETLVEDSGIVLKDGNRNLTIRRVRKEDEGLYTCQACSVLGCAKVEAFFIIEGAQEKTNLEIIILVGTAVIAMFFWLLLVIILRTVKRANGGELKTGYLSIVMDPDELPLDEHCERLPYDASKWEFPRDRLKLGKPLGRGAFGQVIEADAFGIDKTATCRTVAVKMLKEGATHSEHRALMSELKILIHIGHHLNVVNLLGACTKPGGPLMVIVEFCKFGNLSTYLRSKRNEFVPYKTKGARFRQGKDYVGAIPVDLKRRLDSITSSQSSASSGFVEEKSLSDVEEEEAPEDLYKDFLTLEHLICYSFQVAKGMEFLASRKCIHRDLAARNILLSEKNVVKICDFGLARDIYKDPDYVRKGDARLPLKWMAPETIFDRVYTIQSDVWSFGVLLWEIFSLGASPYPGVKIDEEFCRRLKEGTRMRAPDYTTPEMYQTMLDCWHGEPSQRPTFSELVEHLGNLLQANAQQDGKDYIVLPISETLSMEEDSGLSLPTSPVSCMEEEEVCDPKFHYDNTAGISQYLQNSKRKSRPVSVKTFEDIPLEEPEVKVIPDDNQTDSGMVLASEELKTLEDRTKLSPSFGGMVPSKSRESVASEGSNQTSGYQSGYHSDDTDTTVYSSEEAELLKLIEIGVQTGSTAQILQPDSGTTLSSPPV
# Method: (§6) Ba/F3-KDR (Minus IL3 or Plus IL3) (Cellular Proliferation Assay)
# as §2, with “nI” for “nl”, “Ba/F3-KDR-transfected” for “Ba/F3-FGFR1-transfected”
# (§7) In this assay, the inhibitory effect of different compound concentrations (range 10 μM to 0.1 nM) was determined and used to calculate an IC50 (M) and pIC50 (−log IC50) value. As a counterscreen the same experiment was performed in the presence of 10 ng/ml murine IL3.
# [4] = test system: Ba/F3-KDR-transfected cells; experiment: as above; format: cell-based; details: plus 10 ng/ml murine IL3 (counterscreen); for IC50: 24 h, read-out: BAF3-KDR (PLUS IL3) pIC50 (converted)
# Method: as §6
# as §2, with “nI” for “nl”, “Ba/F3-KDR-transfected” for “Ba/F3-FGFR1-transfected”
# as §7
# FGFR4 (h) = FGFR4 (h) (Homo sapiens, UniProt P22455); experiment: FGFR4 (enzymatic assay), TR-FRET; format: biochemical; details: 5 μM ATP; for IC50: read-out: FGFR4 pIC50 (converted)
# Chain of FGFR4 (h) (P22455 22-802): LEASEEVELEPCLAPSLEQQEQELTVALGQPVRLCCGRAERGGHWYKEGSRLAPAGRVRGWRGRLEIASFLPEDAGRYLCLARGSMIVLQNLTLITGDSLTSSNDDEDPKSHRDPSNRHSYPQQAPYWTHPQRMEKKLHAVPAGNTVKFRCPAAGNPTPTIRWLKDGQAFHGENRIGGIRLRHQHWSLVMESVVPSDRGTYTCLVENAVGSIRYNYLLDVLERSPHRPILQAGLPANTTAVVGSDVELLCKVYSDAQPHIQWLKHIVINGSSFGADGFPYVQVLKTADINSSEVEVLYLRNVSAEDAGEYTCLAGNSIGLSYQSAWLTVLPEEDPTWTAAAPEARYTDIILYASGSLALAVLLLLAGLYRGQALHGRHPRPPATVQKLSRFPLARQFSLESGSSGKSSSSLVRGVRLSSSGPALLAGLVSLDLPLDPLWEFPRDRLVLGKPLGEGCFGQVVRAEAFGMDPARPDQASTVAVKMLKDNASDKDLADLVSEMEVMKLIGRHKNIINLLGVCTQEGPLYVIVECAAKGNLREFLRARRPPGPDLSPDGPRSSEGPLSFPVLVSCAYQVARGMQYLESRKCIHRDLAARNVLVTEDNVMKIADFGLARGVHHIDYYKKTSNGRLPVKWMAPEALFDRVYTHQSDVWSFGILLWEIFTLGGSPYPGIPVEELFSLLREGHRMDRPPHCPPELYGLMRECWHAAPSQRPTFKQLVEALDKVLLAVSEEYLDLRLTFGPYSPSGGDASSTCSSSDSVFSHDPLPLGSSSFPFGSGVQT
# Method: as §5, with “FGFR4” for “FGFR1”, “(60” for “(25”
# [5] = test system: Ba/F3-FGFR3-transfected cells; experiment: Ba/F3-FGFR3 (minus IL3 or plus IL3) cellular proliferation assay; format: cell-based; details: plus 10 ng/ml murine IL3 (counterscreen); for IC50: 24 h, read-out: BAF3-FGFR3 (PLUS IL3) pIC50 (converted)
# Method: (§8) Ba/F3-FGFR3 (Minus IL3 or Plus IL3) (Cellular Proliferation Assay)
# as §2, with “nI” for “nl”, “Ba/F3-FGFR3-transfected” for “Ba/F3-FGFR1-transfected”
# as §7
# [6] = molecular target: T3, Ba/F3-FGFR3-transfected cells (Homo sapiens, UniProt P22607); experiment: as above; format: cell-based; details: minus IL3
# T3 construct: BAF3-FGFR3 (MIN IL3) pIC50; other: minus IL3
# T3 sequence (P22607 whole entry, change not shown): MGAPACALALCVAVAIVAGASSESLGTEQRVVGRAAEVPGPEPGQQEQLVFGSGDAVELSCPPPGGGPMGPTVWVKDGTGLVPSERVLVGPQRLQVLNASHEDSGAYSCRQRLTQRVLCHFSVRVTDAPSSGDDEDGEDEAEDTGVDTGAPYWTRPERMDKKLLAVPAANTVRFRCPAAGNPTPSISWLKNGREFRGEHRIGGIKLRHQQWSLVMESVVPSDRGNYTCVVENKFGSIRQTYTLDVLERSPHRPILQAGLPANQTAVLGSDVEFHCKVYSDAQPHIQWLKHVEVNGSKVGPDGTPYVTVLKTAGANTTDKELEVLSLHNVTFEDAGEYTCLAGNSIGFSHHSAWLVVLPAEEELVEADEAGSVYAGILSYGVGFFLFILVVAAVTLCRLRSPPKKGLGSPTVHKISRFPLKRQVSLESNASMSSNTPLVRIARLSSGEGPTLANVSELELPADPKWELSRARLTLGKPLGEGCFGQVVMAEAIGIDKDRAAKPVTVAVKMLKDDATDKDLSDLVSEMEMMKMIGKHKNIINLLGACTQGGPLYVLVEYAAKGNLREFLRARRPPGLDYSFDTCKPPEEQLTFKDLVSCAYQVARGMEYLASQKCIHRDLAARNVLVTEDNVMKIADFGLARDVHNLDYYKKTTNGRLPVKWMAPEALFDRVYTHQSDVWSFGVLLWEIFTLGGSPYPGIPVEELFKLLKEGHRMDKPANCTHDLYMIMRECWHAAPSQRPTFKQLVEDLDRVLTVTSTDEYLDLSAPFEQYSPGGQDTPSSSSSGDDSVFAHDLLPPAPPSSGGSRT
# Method: as §8
# as §2, with “nI” for “nl”, “Ba/F3-FGFR3-transfected” for “Ba/F3-FGFR1-transfected”
# as §7
Structure (SMILES),BAF3-FGFR1 (MIN IL3) pIC50 [2],IC50 (FGFR1 (h)),BAF3-KDR (MIN IL3) pIC50 [3],IC50 (FGFR4 (h)),BAF3-FGFR3 (MIN IL3) pIC50 [6],FGFR4 pIC50 (FGFR4 (h)),IC50 [1],IC50 [4],IC50 [5],BAF3-FGFR1 (PLUS IL3) pIC50 [1],BAF3-KDR (PLUS IL3) pIC50 [4],BAF3-FGFR3 (PLUS IL3) pIC50 [5]
"COc1cc(OC)cc(C(NCCNC(C)C)c2ccc3ncc(-c4cnn(C)c4)nc3c2)c1.Cl (single isomer, unassigned) [Compound 24]",5.16,0.182 µM,<5,> 1 µM,5.29,,> 10 µM,> 10 µM,> 10 µM,,,
COc1cc(OC)cc(C(CCNCC(F)(F)F)c2ccc3ncc(-c4cnn(C)c4)nc3c2)c1.Cl (stereo not drawn) [Compound 33],5.11,0.224 µM,<5,~1 µM,~5.11,,> 10 µM,> 10 µM,> 10 µM,,,
COc1cc(OC)cc(C(CC(=O)NC(C)C)c2ccc3ncc(-c4cnn(C)c4)nc3c2)c1 (stereo not drawn) [Compound 23],<5,> 1 µM,<5,> 1 µM,<5,,> 10 µM,> 10 µM,> 10 µM,,,
"COc1cc(OC)cc(C(O)(CNCCNC(C)C)c2ccc3ncc(-c4cnn(C)c4)nc3c2)c1 (single isomer, unassigned) [Compound 6]",<5,0.955 µM,<5,,<5,,,,,,,
"COc1cc(OC)cc(C(NCCNC(C)C)c2ccc3ncc(-c4cnn(C)c4)nc3c2)c1.Cl (single isomer, unassigned) [Compound 39]",<5,> 1 µM,<5,,<5,<6,,,,<5,<5,<5
"CNCC(O)(c1cc(OC)cc(OC)c1)c1ccc2ncc(-c3cnn(C)c3)nc2c1.Cl (single isomer, unassigned) [Compound 37]",<5,~0.891 µM,<5,> 1 µM,<5,,> 10 µM,> 10 µM,> 10 µM,,,

# More lines, main results first:
BAF3-FGFR1 (MIN IL3) pIC50 [2],IC50 (FGFR1 (h)),BAF3-KDR (MIN IL3) pIC50 [3],IC50 (FGFR4 (h)),BAF3-FGFR3 (MIN IL3) pIC50 [6],FGFR4 pIC50 (FGFR4 (h)),Structure (SMILES),IC50 [1],IC50 [4],IC50 [5],BAF3-FGFR1 (PLUS IL3) pIC50 [1],BAF3-KDR (PLUS IL3) pIC50 [4],BAF3-FGFR3 (PLUS IL3) pIC50 [5]
6.17,0.0138 µM,<5,0.0288 µM,6.39,,"COc1cc(OC)cc(/C(=C\CNCC(F)(F)F)c2ccc3ncc(-c4cnn(C)c4)nc3c2)c1 [Compound 14, {(Z)-3-(3,5-Dimethoxy-phenyl)-3-[3-(1-methyl-1H-pyrazol-4-yl)-quinoxalin-6-yl]-allyl}-(2,2,2-trifluoro-ethyl)-amine]",> 10 µM,> 10 µM,> 10 µM,,,
5.3,0.0537 µM,<5,0.363 µM,5.76,,COc1cc(OC)cc(/C(=C\C#N)c2ccc3ncc(-c4cnn(C)c4)nc3c2)c1 [Compound 4],> 10 µM,> 10 µM,> 10 µM,,,
5.08,0.132 µM,<5,> 1 µM,~5.13,,COc1cc(OC)cc(/C(=C/CN(C)C)c2ccc3ncc(-c4cnn(C)c4)nc3c2)c1 [Compound 34],> 10 µM,> 10 µM,> 10 µM,,,
5.58,0.117 µM,<5,~10 µM,5.17,,COc1cc(OC)cc(C(=O)c2ccc3ncc(-c4cnn(C)c4)nc3c2)c1 [Compound 2],> 10 µM,> 10 µM,> 10 µM,,,
<5,2.29 µM,<5,> 10 µM,5.29,,COc1cc(OC)cc(/C(=C/C#N)c2ccc3ncc(-c4cnn(C)c4)nc3c2)c1 [Compound 3],> 10 µM,> 10 µM,> 10 µM,,,
6.49,0.00776 µM,5.18,0.126 µM,6.72,,"COc1cc(OC)cc(/C(=C\CNC(C)C)c2ccc3ncc(-c4cnn(C)c4)nc3c2)c1 [Compound 8, {(Z)-3-(3,5-Dimethoxy-phenyl)-3-[3-(1-methyl-1H-pyrazol-4-yl)-quinoxalin-6-yl]-allyl}-isopropyl-amine]",> 10 µM,> 10 µM,> 10 µM,,,
5.6,0.0724 µM,<5,0.182 µM,5.48,,COc1cc(OC)cc(C(CC#N)c2ccc3ncc(-c4cnn(C)c4)nc3c2)c1 (stereo not drawn) [Compound 18],> 10 µM,> 10 µM,> 10 µM,,,
5.81,0.017 µM,<5,0.107 µM,6.27,,"COc1cc(OC)cc(/C(=C\CN(C)C)c2ccc3ncc(-c4cnn(C)c4)nc3c2)c1 [Compound 10, {(Z)-3-(3,5-Dimethoxy-phenyl)-3-[3-(1-methyl-1H-pyrazol-4-yl)-quinoxalin-6-yl]-allyl}-dimethyl-amine]",> 10 µM,> 10 µM,> 10 µM,,,
